Earlier results as cited in US6761903B2, “Clear oil-containing pharmaceutical compositions containing a therapeutic agent” (Lipocine, Inc., priority 1999, dated 2004).
Where two headings read alike, the source gives them in different places.

[1] = water having a pH at about 7 and below

solubility in water [1]	SMILES	solubility in water
practically insoluble	C[C@H](CCC(=O)O)[C@H]1CC[C@H]2[C@@H]3[C@H](O)C[C@@H]4C[C@H](O)CC[C@]4(C)[C@H]3CC[C@]12C [CDCA, chenodeoxycholic acid]	
practically insoluble	C[C@H](CCC(=O)O)[C@H]1CC[C@H]2[C@@H]3[C@@H](O)C[C@@H]4C[C@H](O)CC[C@]4(C)[C@H]3CC[C@]12C [UDCA, ursodeoxycholic acid]	
	CCCCCCCC/C=C\CCCCCCCC(=O)OCC(O)CO (stereo not drawn) [glycerol monooleate]	practically water insoluble
